# Source: patent US9951039B2, “Pyrimidines for treatment of bacterial infections” (The Hong Kong Polytechnic University, priority 2016, dated 2018)
# What was measured:
# [1] = system: S. aureus ATCC BAA-1717 (methicillin resistant); experiment: MIC against clinically isolated strain 2; assay type: cell-based; conditions: Staphylococcus aureus, ATCCBAA1717
# Method: (§1) Procedure of Antimicrobial susceptibility test: The MIC value of compounds was measured in the antimicrobial susceptibility test using the broth microdilution procedure in accordance with the CLSI guidelines.^21 Cation-adjusted Mueller Hinton broth (CA-MHB) was used for all the S. aureus strains in the assay. Cells in exponential phase of growth were diluted to approximately 5×10^5 cfu/mL. Stock solutions of each compound were freshly dissolved in dimethyl sulfoxide (DMSO). Then, serial dilutions of each compound in CA-MHB medium were added into 96-well microplate. The final percentage of DMSO in the assay was 1%. Control experiments were performed with 1% DMSO instead of the compound solution. After being incubated at 37° C. for 18 h, OD600 value of cells was measured on a microplate reader and the percentage of bacterial cell inhibition with respect to controls was calculated. The MIC value was defined as the lowest compound concentration at which the growth of bacteria was inhibited by ≥90%. Three independent assays were performed for each compound.
# (§2) Results: Three compounds, namely 14av_amine16, 14dv_amine16 and 14dv_amine06, were selected to be tested against nine in-house clinically isolated bacterial strains including S. aureus ATCC29247, which is an ampicillin resistant strain, S. aureus ATCC BAA-41, ATCC BAA-1717, ATCC BAA-1720, ATCC 43300 which are methicillin resistant strains and four USA300 strains, (#417, #757, #1799 and #2690), which are the predominant strain type of community-associated MRSA strains in the United States.
# [2] = system: S. aureus ATCC BAA-1720 (methicillin resistant); experiment: MIC against clinically isolated strain 3; assay type: cell-based; conditions: Staphylococcus aureus, ATCCBAA1720
# Method: as §1, §2
# [3] = system: S. aureus ATCC BAA-41 (methicillin resistant); experiment: MIC against clinically isolated strain 4; assay type: cell-based; conditions: Staphylococcus aureus, ATCCBAA41
# Method: as §1, §2
# [4] = system: S. aureus ATCC 43300 (methicillin resistant); experiment: MIC against clinically isolated strain 5; assay type: cell-based; conditions: Staphylococcus aureus, ATCC43300
# Method: as §1, §2
# [5] = system: USA300 #417 (community-associated MRSA); experiment: MIC against clinically isolated strain 6; assay type: cell-based, S. aureus; conditions: Staphylococcus aureus
# Method: as §1, §2
# [6] = system: USA300 #757 (community-associated MRSA); experiment: MIC against clinically isolated strain 7; assay type: cell-based, S. aureus; conditions: Staphylococcus aureus
# Method: as §1, §2
# [7] = system: USA300 #1799 (community-associated MRSA); experiment: MIC against clinically isolated strain 8; assay type: cell-based, S. aureus; conditions: Staphylococcus aureus
# Method: as §1, §2
# [8] = system: USA300 #2690 (community-associated MRSA); experiment: MIC against clinically isolated strain 9; assay type: cell-based, S. aureus; conditions: Staphylococcus aureus
# Method: as §1, §2
# [9] = system: clinically isolated S. aureus strains; experiment: MIC against the nine clinically isolated S. aureus strains; assay type: cell-based; conditions: Staphylococcus aureus; most of the MRSA strains
# Method: as §1, with “compound. […]” for “compound.”
compound,measurement,setting,value
"COc1cccc(OC)c1C(=O)N[C@@H]1C(=O)N2[C@@H]1SC(C)(C)[C@@H]2C(=O)O [Methicillin, reference compound]",MIC,[1],> 30 µM
same,MIC,[2],> 30 µM
same,MIC,[3],> 30 µM
same,MIC,[4],> 30 µM
same,MIC,[5],> 30 µM
same,MIC,[6],30 µM
same,MIC,[7],30 µM
same,MIC,[8],15 µM
same,MIC,[9],> 30 µM
